# Measurements: US6680308B1, “Use of organophosphorus compounds for the therapeutic and prophylactic treatment of infections” (priority 1998, dated 2004)
# How the values were obtained:
# [1] = tested on: Plasmodium falciparum Dd2 (Indo-China); assay: In vitro cytotoxicity against malaria parasites, [3H]-hypoxanthine insertion, strain Dd2; type: cell-based; settings: strain Dd2, resistant to cloroquine, quinine, pyrimethamine, cycloguanil and sulfadoxine, 48 hours incubation, then 24 hours [3H]-hypoxanthine, read-out: IC50 value (concentration at which the vitality of parasites is reduced by a half)
# Description: (§1) On the Principle of IC50 Determination According to Vial et al (the Concentration at Which the Vitality of Parasites is Reduced by a Half)
# (§2) To determine the IC50 value according to Vial et al malaria parasites are initially cultivated for a complete 48 hour cycle in the presence of inhibitors, in the subsequent 24 hours the survival rate is measured by [^3H]-hypoxanthine insertion.
# (§3) A dilution series of 3-(N-formyl-N-hydroxylamino)-propylphosphonic acid monosodium salt is placed in 20 μl aliquots concentrated by 10 on a microtitre plate. Then 180 μl parasite suspension in culture medium is added to each well. Asynchronous cultures with a parasitaemia of approximately 0.4% and 2% haematocrite are used. The microtitre plates are subsequently incubated for 48 hours. Then 30 μl [^3H]-hypoxanthine are added to each well. After 24 hours of incubation the cells were harvested and the incorporated radioactivity was measured. In FIG. 1 the results with the strains HB3 and Dd2 are shown with known resistances against other malaria pharmaceutical compositions. In both strains there is a IC50 value of approximately 100 μg/l. The resistances of these strains are:
# Plasmodium falciparum Dd2 (Indo-China) is resistant to cloroquine, quinine, pyrimethamine, cycloguanil and sulfadoxine.
# [2] = tested on: Plasmodium falciparum HB3 (Honduras); assay: In vitro cytotoxicity against malaria parasites, [3H]-hypoxanthine insertion, strain HB3; type: cell-based; settings: strain HB3, resistant to pyrimethamine, 48 hours incubation, then 24 hours [3H]-hypoxanthine, read-out: IC50 value (concentration at which the vitality of parasites is reduced by a half)
# Description: as §1, §2, §3
# Plasmodium falciparum HB3 (Honduras) is resistant to pyrimethamine.
# [3] = tested on: Plasmodium vinckeii; assay: Protection from malaria in infected mice, pretreatment one day before infection; type: in vivo, mice (BALB/c-strain)
# Description: The efficacy of compounds in vivo against malaria was tested using male mice weighing 20 to 25 g (BALB/c-strain). Four mice were treated intraperitoneally with 50 mg/kg 3-(N-formyl-N-hydroxylamino)-propylphosphonic acid monosodium salt one day before infection. The mice were then infected with Plasmodium vinckeii. Mice which were not pretreated with the substance served as a control group.
# [4] = tested on: Plasmodium vinckeii; assay: Efficacy against malaria in vivo, modified Peters' test, treatment of infected mice
# Description: The various derivatives were tested by the modified Peters' test. The substances were applied here in a quarter of the median lethal dose (LD50). In the test batch ten mice were infected with Plasmodium vinckeii, the pathogen of mouse malaria. After confirmation of the infection by blood testing four mice were treated. Six mice, which were not treated, served as a control group. […] The control mice had to be killed on day 5 after infection with parasitaemia of >80%.
smiles,measurement,setting,value
O=CN(O)CCCP(=O)([O-])O.[Na+] [3-(N-formyl-N-hydroxylamino)-propylphosphonic acid monosodium salt],IC50,[1],~0.1 µg/mL
same,IC50,[2],~0.1 µg/mL
same,infection in pretreated mice,[3]; 50 mg/kg intraperitoneally one day before infection with Plasmodium vinckeii,No infection could be detected
same,parasites 8 weeks after infection,"[3]; 50 mg/kg intraperitoneally one day before infection, 8 weeks after infection",still free of parasites
same,living parasites after 1 day,"[4]; 50 mg/kg/d, mice with a parasitaemia of 80%, after 1 day",free of living parasites
same,parasites 8 weeks after the treatment had stopped,"[4]; 1,000 mg/kg/d over 3 days, 8 weeks after end of treatment",still free from parasites
same,effect on parasites in the mice's blood,"[4]; 1,000 mg/kg/d over 3 days, mice infected with Plasmodium vinckeii",destruction of the parasites
same,living parasites in treated group after one day,"[4]; 1,000 mg/kg/d, after just one day",free of living parasites
